Assay results published in patent US20250049798A1, “WEE1 PROTEIN KINASE DEGRADATION AGENT AND USE THEREOF” (HANGZHOU GLUBIO PHARMACEUTICAL CO. LTD., priority 2021, published 2025).

How the values were obtained:
NCI-H1048 cells = test: NCI-H1048 cell proliferation assay (CTG assay); assay type: cell-based; details: Homo sapiens, 120 hours, read-out: CTG cellular assay_H1048: IC50
Description: NCI-H1048 Cell Proliferation Assay (CTG Assay) The following is an example of an assay that can be used to determine the anti-proliferative activity of Wee1 PROTACs in a small cell lung cancer cell line, NCI-H1048 (ATCC Cat #CRL-5853). This cell line was cultured in RPMI-1640 medium supplemented with 10% FBS. About 1,200 NCI-H1048 cells in 50 μL of culture medium were seeded into a 384-well plate (Cat #3764, Corning), pre-spotted with compounds using the Echo 650 liquid handler (Beckman). The dose-response-curve (DRC) typically has 10-points with a highest concentration at 10 μM, and half-log diluted to as low as 0.316 nM, plus a DMSO control. Assay plates were incubated at 37° C. with 5% CO2 for 120 hours. After that, 20 μL of the CellTiter-Glo (CTG) Luminescent Cell Viability Assay Reagent (Cat #G7573, Promega) was added to each well and incubated at room temperature for 30 minutes. Luminescence was then measured with Pherastar microplate reader (BMG Labtech). All percentage of cell growth inhibition curves were processed using Collaborative Drug Discovery Vault.
Cell viability reads in compound-treated wells were normalized to that of DMSO control and expressed as Percent of Control (PoC, y). A four Parameter Logistic Model was used to determine the compound's EC50 and DC50, using the following equation: […]

HiBiT tagged Wee1 = HiBiT tagged Wee1 (Homo sapiens, UniProt P30291); test: Wee1 protein degradation assay (HiBiT assay); assay type: cell-based; details: engineered HT-1080 cells, 20 hours; for Dmax: maximum percentage of Wee1 degradation, read-out: HiBiT Wee1: Dmax
HiBiT tagged Wee1, sequence (P30291 whole entry): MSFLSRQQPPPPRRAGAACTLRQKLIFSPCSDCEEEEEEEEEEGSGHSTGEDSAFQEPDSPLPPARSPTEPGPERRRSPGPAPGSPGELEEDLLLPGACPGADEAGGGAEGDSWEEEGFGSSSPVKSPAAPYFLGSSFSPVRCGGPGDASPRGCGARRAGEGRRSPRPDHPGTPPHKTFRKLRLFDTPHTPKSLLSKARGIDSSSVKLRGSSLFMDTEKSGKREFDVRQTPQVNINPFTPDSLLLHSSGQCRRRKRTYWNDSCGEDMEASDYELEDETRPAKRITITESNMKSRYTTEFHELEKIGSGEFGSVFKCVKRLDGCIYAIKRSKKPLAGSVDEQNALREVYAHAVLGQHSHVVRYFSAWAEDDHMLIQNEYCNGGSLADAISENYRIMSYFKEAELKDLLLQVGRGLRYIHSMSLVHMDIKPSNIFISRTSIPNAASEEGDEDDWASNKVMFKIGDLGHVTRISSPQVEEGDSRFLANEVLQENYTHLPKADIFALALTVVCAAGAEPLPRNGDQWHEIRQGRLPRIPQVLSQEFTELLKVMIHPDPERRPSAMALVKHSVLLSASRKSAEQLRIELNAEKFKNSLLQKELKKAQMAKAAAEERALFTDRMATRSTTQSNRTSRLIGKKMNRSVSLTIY

IC50 (NCI-H1048 cells) [µM] | DC50 (HiBiT tagged Wee1) [µM] | Dmax (HiBiT tagged Wee1) [%] | Structure (SMILES)
> 0.1 | > 1 | < 50 | C=CCn1c(=O)c2cnc(Nc3ccc4c(c3)CN(CC3CCN(c5ccc6c(c5)C(=O)N(C5CCC(=O)NC5=O)C6=O)CC3)CC4)nc2n1-c1cccc(C(C)(C)O)n1 (centres unmarked) [Compound 7]
≤ 0.025 | < 0.1 | > 75 | C=CCn1c(=O)c2cnc(Nc3ccc(N4CCC(CN5CCN(c6cccc7c(C8CCC(=O)NC8=O)nn(C)c67)CC5)CC4)cc3)nc2n1-c1cccc(C(C)(C)O)n1 (centres unmarked) [Compound 144]
≤ 0.025 | < 0.1 | > 75 | C=CCn1c(=O)c2cnc(Nc3ccc(N4CCN(CC5CCN(c6cc7c(cc6F)c(N6CCC(=O)NC6=O)nn7C)CC5)CC4)cc3)nc2n1-c1ccc2c(n1)[C@@](O)(CC)CC2 [Compound 161]
≤ 0.025 | < 0.1 | > 75 | C=CCn1c(=O)c2cnc(Nc3ccc(N4CCN(CC5CCN(c6cccc7c(C8CCC(=O)NC8=O)nn(C)c67)CC5)CC4)cc3)nc2n1-c1cccc(C(C)(C)O)n1 (centres unmarked) [Compound 117]
≤ 0.025 | < 0.1 | > 75 | C=CCn1c(=O)c2cnc(Nc3ccc(N4CCC(CN5CCC(c6ccc(NC7CCC(=O)NC7=O)cc6C(F)(F)F)CC5)CC4)cc3)nc2n1-c1cccc(C(C)(C)O)n1 (centres unmarked) [Compound 80]
 | < 0.1 | > 75 | C=CCn1c(=O)c2cnc(Nc3ccc(N4CCN(CC5CCN(c6ccc(NC7CCC(=O)NC7=O)cc6F)CC5)CC4)cc3)nc2n1-c1ccc2c(n1)[C@@](C)(O)CCC2 (single isomer, unassigned) [Compound 191]
 | < 0.1 | > 75 | C=CCn1c(=O)c2cnc(Nc3ccc(C4CCN(C5CN(c6ccc(NC7CCC(=O)NC7=O)cc6F)C5)CC4)cc3)nc2n1-c1cccc(C(C)(C)O)n1 (centres unmarked) [Compound 148]
 | < 0.1 | > 75 | C=CCn1c(=O)c2cnc(Nc3ccc(N4CCN(CC5CCN(c6ccc(NC7CCC(=O)NC7=O)cc6Cl)CC5)CC4)cc3)nc2n1-c1cccc(C(C)(C)O)n1 (centres unmarked) [Compound 88]
 | < 0.1 | 50 to 75 | O=C1CCC(N2C(=O)c3ccc(N4CC(CN5CCC(c6ccc(Nc7ncc8c(=O)n(-c9c(Cl)cccc9Cl)c9nccn9c8n7)cc6)CC5)C4)cc3C2=O)C(=O)N1 (centres unmarked) [Compound 13]
 | < 0.1 | 50 to 75 | C=CCn1c(=O)c2cnc(Nc3ccc(N4CCC(CN5CCN(c6cc7c(cc6F)C(=O)N(C6CCC(=O)NC6=O)C7=O)CC5)CC4)cc3)nc2n1-c1cccc(C(C)(C)O)n1 (centres unmarked) [Compound 57]
 | < 0.1 | 50 to 75 | C=CCn1c(=O)c2cnc(Nc3ccc(N4CCN(C5CCN(c6ccc7c(c6)C(=O)N(C6CCC(=O)NC6=O)C7=O)CC5)CC4)cc3)nc2n1-c1cccc(C(C)(C)O)n1 (centres unmarked) [Compound 40]
 | < 0.1 | 50 to 75 | C=CCn1c(=O)c2cnc(Nc3ccc(N4CCN(C[C@@H]5CCN(c6ccc7c(c6)C(=O)N(C6CCC(=O)NC6=O)C7=O)C5)CC4)cc3)nc2n1-c1cccc(C(C)(C)O)n1 (some centres unmarked) [Compound 38]
 | < 0.1 | > 75 | O=C1CCC(Nc2ccc(N3CCN(CC4CCN(c5ccc(Nc6ncc7c(=O)n(-c8c(Cl)cccc8Cl)c8nccn8c7n6)cc5)CC4)CC3)c(F)c2)C(=O)N1 (centres unmarked) [Compound 94]
 | > 1 | < 50 | CN1CN(c2c(Cl)cccc2Cl)C(=O)c2cnc(Nc3ccc4c(c3)CN(CC3CN(c5ccc6c(c5)C(=O)N(C5CCC(=O)NC5=O)C6=O)C3)CC4)nc21 (centres unmarked) [Compound 20]
 | < 0.1 | > 75 | C=CCn1c(=O)c2cnc(Nc3ccc(N4CCN(CC5CCN(c6ccc(NC7CCC(=O)NC7=O)cc6F)CC5)CC4)cc3)nc2n1-c1ccc2c(n1)[C@](C)(O)CC2 (some centres unmarked) [Compound 112]
 | < 0.1 | > 75 | C=CCn1c(=O)c2cnc(Nc3ccc(N4CCN(C5CC6(CCN(c7ccc(NC8CCC(=O)NC8=O)cc7F)CC6)C5)CC4)cc3)nc2n1-c1ccc2c(n1)[C@@](O)(CC)CC2 (some centres unmarked) [Compound 165]
 | < 0.1 | > 75 | C=CCn1c(=O)c2cnc(Nc3ccc(N4CCN(CC5CCN(c6ccc(NC7CCC(=O)NC7=O)cc6F)CC5)[C@H](COC)C4)cc3)nc2n1-c1ccc2c(n1)[C@@](O)(CC)CC2 (some centres unmarked) [Compound 206]
 | < 0.1 | 50 to 75 | C=CCn1c(=O)c2cnc(Nc3ccc(C4CCN(CC5CCN(c6ccc(NC7CCC(=O)NC7=O)cn6)CC5)CC4)cc3)nc2n1-c1cccc(C(C)(C)O)n1 (centres unmarked) [Compound 84]
 | > 1 | < 50 | O=C1CCC(N2C(=O)c3ccc(N4CCC(CCN5CCN(c6ccc(Nc7ncc8c(=O)n(-c9c(Cl)cccc9Cl)c9nccn9c8n7)cc6)CC5)CC4)cc3C2=O)C(=O)N1 (centres unmarked) [Compound 4]
 | < 0.1 | > 75 | C=CCn1c(=O)c2cnc(Nc3ccc(N4CCC(N5CC6(CN(c7ccc(NC8CCC(=O)NC8=O)cc7F)C6)C5)CC4)cc3)nc2n1-c1ccc2c(n1)[C@@](O)(CC)CC2 (some centres unmarked) [Compound 154]
 | < 0.1 | 50 to 75 | C=CCn1c(=O)c2cnc(Nc3ccc(N4CCN(CC5CCN(c6ccc(NC7CCC(=O)NC7=O)nc6)CC5)CC4)cc3)nc2n1-c1ccc2c(n1)[C@@](O)(CC)CC2 (some centres unmarked) [Compound 203]
 | > 1 | < 50 | C=CCn1c(=O)c2cnc(Nc3ccc(N4CCC(CC(=O)Nc5cccc6c(N7CCC(=O)NC7=O)nn(C)c56)CC4)cc3)nc2n1-c1ccc2c(n1)[C@@](O)(CC)CC2 [Compound 202]
 | < 0.1 | 50 to 75 | C=CCn1c(=O)c2cnc(Nc3ccc(N4CCC(CN5CCC(c6ccc7c(N8CCC(=O)NC8=O)nn(C)c7c6)C(F)(F)C5)CC4)cc3)nc2n1-c1ccc2c(n1)[C@@](O)(CC)CC2 (some centres unmarked) [Compound 160]
 | < 0.1 | > 75 | C=CCn1c(=O)c2cnc(Nc3ccc(N4CCC(CN5CCN(c6ccc7c(N8CCC(=O)NC8=O)nn(C)c7c6)CC5)CC4)c(C)c3)nc2n1-c1ccc2c(n1)[C@@](O)(CC)CC2 [Compound 135]
 | > 1 | < 50 | C=CCn1c(=O)c2cnc(Nc3ccc(C4CCN(CC5CCN(c6ccc(N7CCC(=O)NC7=O)cc6)CC5)CC4)cc3)nc2n1-c1cccc(C(C)(C)O)n1 [Compound 146]
 | < 0.1 | > 75 | C=CCn1c(=O)c2cnc(Nc3ccc(C4CCN(C5CN(c6ccc7c(c6)C(=O)N(C6CCC(=O)NC6=O)C7=O)C5)CC4)cc3)nc2n1-c1cccc(C(C)(C)O)n1 (centres unmarked) [Compound 43]
 | > 1 | < 50 | Cc1cc(Nc2ncc3c(n2)N(C)CN(c2c(Cl)cccc2Cl)C3=O)ccc1N1CCC(CN2CCN(c3ccc4c(c3)CN(C3CCC(=O)NC3=O)C4=O)CC2)CC1 (centres unmarked) [Compound 34]
 | < 0.1 | > 75 | C=CCn1c(=O)c2cnc(Nc3ccc(N4CCN(C5CCN(c6ccc(NC7CCC(=O)NC7=O)cc6F)CC5)CC4)cc3)nc2n1-c1ccc2c(n1)[C@@](O)(CC)CC2 (some centres unmarked) [Compound 155]
 | < 0.1 | > 75 | C=CCn1c(=O)c2cnc(Nc3ccc(N4CCC5(CC4)CCN(C4CN(c6ccc(NC7CCC(=O)NC7=O)cc6F)C4)CC5)cc3)nc2n1-c1ccc2c(n1)[C@@](O)(CC)CC2 (some centres unmarked) [Compound 171]
 | < 0.1 | 50 to 75 | C=CCn1c(=O)c2cnc(Nc3ccc(C4CCN(C5CCN(c6cccc7c6n(C)c(=O)n7C6CCC(=O)NC6=O)CC5)CC4)cc3)nc2n1-c1cccc(C(C)(C)O)n1 (centres unmarked) [Compound 99]
